Measurements as given in patent US6436990B1, “6-methoxy-2-naphthylacetic acid prodrugs” (Nobex Corporation, priority 1999, dated 2002).

Experiments:
Rat Paw Edema = assay: Rat Paw Edema; type: in vivo; conditions: for % Inhibition: one dose per compound (Dose column, mg/kg): Nabumetone 79.0, 6-MNA 75.0, Indomethacin 10.0, Example 1 94.3, Example 2 121.0, Example 3 94.9, Example 4 121.0
[1] = oral administration; cited from earlier work

Row | melting point | SMILES | % Inhibition (Rat Paw Edema) [%] | ED50 (Rat Paw Edema) [mg/kg] | share of orally administered nabumetone transferred in vivo into 6MNA [1]
1 |  | COc1ccc2cc(CC(=O)OCCOCCO[N+](=O)[O-])ccc2c1 [Example 2, (6-Methoxy-naphthalen-2-yl)-acetic acid 2-(2-nitrooxy-ethoxy)-ethyl ester] | 57 |  | 
2 | 234 to 236 °C | COc1ccc2cc(CC(N)=O)ccc2c1 [Example 10, 2-(6-methoxy-naphthalen-2-yl)-acetamide] |  |  | 
3 |  | COc1ccc2c(c1)c(CC(=O)O)c(C)n2C(=O)c1ccc(Cl)cc1 [Indomethacin, reference compound] | 51 |  | 
4 | 38 to 40 °C | CCOC(=O)COC(=O)Cc1ccc2cc(OC)ccc2c1 [Example 4, (6-methoxy-naphthalen-2-yl)-acetic acid ethoxycarbonylmethyl ester] | 38 |  | 
5 |  | COc1ccc2cc(CC(=O)O)ccc2c1 [Example 6-MNA, 6-methoxy-2-naphthylacetic acid] | 45 |  | 
6 | 129 °C | COCCNC(=O)Cc1ccc2cc(OC)ccc2c1 [Example 8, N-(2-methoxy-ethyl)-2-(6-methoxy-naphthalen-2-yl)-acetamide] |  |  | 
7 | 122 to 124 °C | COc1ccc2cc(CC(=O)OCC(C)=O)ccc2c1 [Example 1, (6-methoxy-naphthalen-2-yl)-acetic acid 2-oxo-propyl ester] | 65 | 33.9 | 
8 | 190 to 192 °C (dec.) | COc1ccc2cc(CC(=O)OCC(=O)O)ccc2c1 [Example 3, (6-methoxy-naphthalen-2-yl)-acetic acid carboxymethyl ester] | 58 |  | 
9 |  | COc1ccc2cc(CCC(C)=O)ccc2c1 [Nabumetone, nabumetone, reference compound] | 60 | 35.9 | about 35%
